Experimental data reported in US6911549B1, “Method of preparing a taxol derivative” (priority 1992, dated 2005).
In brackets after ≈: the same amount, converted by molar mass.

Tests used:
L1210 leukemia = L1210 leukemia cell proliferation inhibition (Table 1, procedure of Li et al.); assay type: cell-based, mouse; details: drug concentration required to inhibit cell proliferation to 50% of untreated control cells; for IC50: Mus musculus, L1210, read-out: L1210 (IC50 μg/ml)
From the text: The biological activity of the compounds of this invention has been further confirmed using well known procedures against L1210 leukemia and the results set forth in Table I. The results were obtained using standard well known procedure (Li, L. H.; Kuentzel, S. L.; Murch, L. L.; Pschigoga, L. M.; and W. C. Krueger, “Comparative biological and biochemical effects of nogalamycin and its analogs on L1210 leukemia,” Cancer Res. 39:4816-4822 (1979)). The results are expressed as an IC50 which is the drug concentration required to inhibit cell proliferation to 50% of that of untreated control cells. Lower numbers indicated greater activity.

tubulin = experiment: In vitro tubulin polymerization assay after Gaskin et al.; assay type: biochemical; details: in vitro at 20° C.; for induction of tubulin polymerization in vitro: compared with taxol
From the text: (§1) The biological activity of the 7-deoxy-7β,8β-methanotaxol compounds (Formula II) of the invention has been confirmed using well known procedures.
(§2) The biological activity of the 7-deoxy-7-halotaxol compounds (Formula III) of the invention has been confirmed using well known procedures.

[1] = tested on: A2780 (human ovarian carcinoma) cells; experiment: Cytotoxicity in A2780 (human ovarian carcinoma) cells in culture (IC90); assay type: cell-based
From the text: as §2

[2] = tested on: L1210 mouse leukemia carcinoma cells; experiment: Cytotoxicity in L1210 mouse leukemia carcinoma cells in culture (IC90); assay type: cell-based
From the text: as §1

CC(=O)OC1C(=O)C2(C)C(F)CC3OCC3(OC(C)=O)C2C(OC(=O)c2ccccc2)C2(O)CC(OC(=O)C(OC(=O)OCC(Cl)(Cl)Cl)C(NC(=O)c3ccccc3)c3ccccc3)C(C)=C1C2(C)C (stereo not shown) [Compound 13AA, 2′-{[(2,2,2-Trichloroethyl)-oxy]carbonyl}-7-deoxy-7-fluorotaxol]
L1210 (IC50 μg/ml) (L1210 leukemia): 0.054 µg/mL

CC(=O)O[C@H]1C(=O)[C@]2(C)C(F)C[C@H]3OC[C@@]3(OC(C)=O)[C@H]2[C@H](OC(=O)c2ccccc2)[C@]2(O)C[C@H](OC(=O)[C@H](OC(=O)OCC(Cl)(Cl)Cl)[C@@H](NC(=O)OC(C)(C)C)c3ccccc3)C(C)=C1C2(C)C (stereo partly shown) [Compound 13DA, N-Debenzoyl-N-(t-butyl)oxycarbonyl-2′-{[(2,2,2-trichloroethyl)oxy]carbonyl}-7-deoxy-7-fluorotaxol]
L1210 (IC50 μg/ml) (L1210 leukemia): 0.015 µg/mL

CC(=O)OC1C(=O)C23CC2CC2OCC2(OC(C)=O)C3C(OC(=O)c2ccccc2)C2(O)CC(OC(=O)C(OC(=O)OCC(Cl)(Cl)Cl)C(NC(=O)c3ccccc3)c3ccccc3)C(C)=C1C2(C)C (stereo not drawn) [Compound 14AA, 2′-{[(2,2,2-Trichloroethyl)oxy]carbonyl}-7-deoxy-7β,8β-methanotaxol]
L1210 (IC50 μg/ml) (L1210 leukemia): >0.1 µg/mL

CC(=O)O[C@H]1C(=O)C23C[C@@H]2CC2OC[C@@]2(OC(C)=O)C3[C@H](OC(=O)c2ccccc2)[C@]2(O)CC(OC(=O)C(OC(=O)OCC(Cl)(Cl)Cl)[C@@H](NC(=O)OC(C)(C)C)c3ccccc3)C(C)=C1C2(C)C (stereo partly drawn) [Compound 14DA, N-Debenzoyl-N-(t-butyl)oxycarbonyl-2′-{[(2,2,2-trichloroethyl)oxy]carbonyl}-7-deoxy-7β,8β-methanotaxol]
IC50 (L1210 leukemia): 0.012 µg/mL (≈ 0.0119 µM)

CC(=O)OC1C(=O)C2(C)C(F)CC3OCC3(OC(C)=O)C2C(OC(=O)c2ccccc2)C2(O)CC(OC(=O)C(O)C(NC(=O)OC(C)(C)C)c3ccccc3)C(C)=C1C2(C)C (stereo not shown) [Compound 20, N-Debenzoyl-N-(t-butyl)oxycarbonyl-7-deoxy-7-fluorotaxol]
L1210 (IC50 μg/ml) (L1210 leukemia): 0.0038 µg/mL

CC(=O)O[C@H]1C(=O)[C@]23C[C@H]2C[C@H]2OC[C@@]2(OC(C)=O)[C@H]3[C@H](OC(=O)c2ccccc2)[C@]2(O)C[C@H](OC(=O)[C@H](O)[C@@H](NC(=O)OC(C)(C)C)c3ccccc3)C(C)=C1C2(C)C [Compound 23, N-Debenzoyl-N-(t-butyl)oxycarbonyl-7-deoxy-7β,8β-methanotaxol]
L1210 (IC50 μg/ml) (L1210 leukemia): 0.0046 µg/mL

CC(=O)O[C@H]1C(=O)[C@@]2(C)C(F)C[C@H]3OC[C@@]3(OC(C)=O)[C@H]2[C@H](OC(=O)c2ccccc2)[C@]2(O)C[C@H](OC(=O)[C@H](O)[C@@H](NC(=O)NC(C)(C)C)c3ccccc3)C(C)=C1C2(C)C (stereo partly shown) [Compound 28, N-debenzoyl-N-(t-butyl)aminocarbonyl-7-deoxy-7-fluoro-taxol]
L1210 (IC50 μg/ml) (L1210 leukemia): 0.0055 µg/mL

CC(=O)O[C@H]1C(=O)[C@@]23CC2C[C@H]2OC[C@@]2(OC(C)=O)[C@H]3[C@H](OC(=O)c2ccccc2)[C@]2(O)C[C@H](OC(=O)[C@H](O)[C@@H](NC(=O)NC(C)(C)C)c3ccccc3)C(C)=C1C2(C)C (stereo partly drawn) [Compound 29, N-debenzoyl-N-(t-butyl)aminocarbonyl-7-deoxy-7β,8β-methano-taxol]
L1210 (IC50 μg/ml) (L1210 leukemia): 0.006 µg/mL

CC(=O)O[C@H]1C(=O)[C@]2(C)C(F)C[C@H]3OC[C@@]3(OC(C)=O)[C@H]2[C@H](OC(=O)c2ccccc2)[C@]2(O)CC(OC(=O)[C@H](O)[C@@H](NC(=O)c3ccccc3)c3ccccc3)C(C)=C1C2(C)C (stereo partly shown) [Compound IIIb, 7-Deoxy-7-fluorotaxol]
potency relative to taxol in tubulin polymerization assay (tubulin): approximately half as potent as taxol | induction of tubulin polymerization in vitro (tubulin): able to induce tubulin polymerization in vitro at 20 °C in a manner very similar to taxol | IC90 ([1]; Homo sapiens, A2780, read-out: IC90 (90% growth inhibitory concentration)): 0.016 µg/mL (≈ 0.0187 µM) | IC50 (L1210 leukemia): 0.01 µg/mL (≈ 0.0117 µM)

CC(=O)OC1C(=O)C23CC2CC2OCC2(OC(C)=O)C3C(OC(=O)c2ccccc2)C2(O)CC(OC(=O)C(O)C(NC(=O)c3ccccc3)c3ccccc3)C(C)=C1C2(C)C (stereo not drawn) [Compound IIb, 7-Deoxy-7β,8β-methanotaxol]
IC90 (90% growth inhibitory concentration) [2]: 0.025 micrograms/ml | induction of tubulin polymerization in vitro (tubulin): able to induce tubulin polymerization in vitro at 20 °C in a manner very similar to taxol | L1210 (IC50 μg/ml) (L1210 leukemia): 0.012 µg/mL

CC(=O)O[C@H]1C(=O)[C@@]2(C)[C@H]([C@H](OC(=O)c3ccccc3)[C@]3(O)C[C@H](OC(=O)[C@H](O)[C@@H](NC(=O)c4ccccc4)c4ccccc4)C(C)=C1C3(C)C)[C@]1(OC(C)=O)CO[C@@H]1C[C@@H]2O [Taxol]
IC90 (90% growth inhibitory concentration) [2]: 0.06 micrograms/ml | IC90 (90% growth inhibitory concentration) ([1]; A2780 (human ovarian carcinoma) cells in culture): 0.007 micrograms/ml | L1210 (IC50 μg/ml) (L1210 leukemia): 0.015 µg/mL

CC(=O)O[C@@]12CO[C@@H]1C[C@H](O)[C@@]1(C)C(=O)[C@H](O)C3=C(C)[C@@H](OC(=O)[C@H](O)[C@@H](NC(=O)OC(C)(C)C)c4ccccc4)C[C@@](O)([C@@H](OC(=O)c4ccccc4)[C@H]21)C3(C)C [Taxotere, reference compound]
IC50 (L1210 leukemia): 0.004 µg/mL (≈ 0.00495 µM)
